US8404859B2, “Thiazole and thiophene compounds” (Hoffmann-La Roche Inc., priority 2011, dated 2013)
pIC50: −log10 of the molar value.

Tests used:
Mac-1/ICAM-1 = Mac-1/ICAM-1 (Homo sapiens, UniProt P05107+P11215); assay: Mac-1/ICAM-1 ELISA; details: Mac-1 receptor coated plates, 5dICAM-Fc binding
Method: (§1) sLFA-1/ICAM-1 ELISA and Mac-1/ICAM-1 ELISA
(§2) Plates were coated with either 50 μl/well of 2.0 ug/ml solution of sLFA-1 or Mac-1 receptor in divalent cation buffer (1 mM MnCI2, 0.14M NaCl, 20 mM HEPES pH 7.2) at 4° C. overnight. Two hundred fifty μl of blocking buffer (1% BSA in divalent cation buffer) was added to each well 1 hour at 37° C. Plates were washed 3 times with wash buffer (TBS/0.05% Tween-20/1 mM MnCl2). The compound to be tested was solubilized in DMSO. A series of 1:3 dilutions were performed to achieve a concentration range of 0.45 nM-3 uM. Fifty μl of binding buffer (0.5% BSA in divalent cation buffer)/1% DMSO and 50 μl of the solutions to be tested were added to the appropriate wells and incubated for 1 hour. Fifty μl of 5dICAM-Fc (27 ng/ml) was added to the appropriate wells and 50 μl binding buffer was added to non-specific binding wells and incubated for 2 hours and washed. One hundred μl of 1:4000 HRP-goat anti-huIgG was added to each well and incubated for 1 hour and washed. One hundred μl of 1:1 TMB solution was added to each well and developed for 20 min at room temperature. Color development was stopped by adding 100 μl H3PO4 to each well. Absorbance was measured at 450 nm.

sLFA-1/ICAM-1 = sLFA-1/ICAM-1 (Homo sapiens, UniProt P05107+P20701, DEL701-769); assay: sLFA-1/ICAM-1 ELISA; details: sLFA-1 coated plates, 5dICAM-Fc binding, read-out: LFA/ICAM (IC50)
Method: as §1, §2

Mac-1/ICAM-1, sequence (P05107 23-769, other chains not shown): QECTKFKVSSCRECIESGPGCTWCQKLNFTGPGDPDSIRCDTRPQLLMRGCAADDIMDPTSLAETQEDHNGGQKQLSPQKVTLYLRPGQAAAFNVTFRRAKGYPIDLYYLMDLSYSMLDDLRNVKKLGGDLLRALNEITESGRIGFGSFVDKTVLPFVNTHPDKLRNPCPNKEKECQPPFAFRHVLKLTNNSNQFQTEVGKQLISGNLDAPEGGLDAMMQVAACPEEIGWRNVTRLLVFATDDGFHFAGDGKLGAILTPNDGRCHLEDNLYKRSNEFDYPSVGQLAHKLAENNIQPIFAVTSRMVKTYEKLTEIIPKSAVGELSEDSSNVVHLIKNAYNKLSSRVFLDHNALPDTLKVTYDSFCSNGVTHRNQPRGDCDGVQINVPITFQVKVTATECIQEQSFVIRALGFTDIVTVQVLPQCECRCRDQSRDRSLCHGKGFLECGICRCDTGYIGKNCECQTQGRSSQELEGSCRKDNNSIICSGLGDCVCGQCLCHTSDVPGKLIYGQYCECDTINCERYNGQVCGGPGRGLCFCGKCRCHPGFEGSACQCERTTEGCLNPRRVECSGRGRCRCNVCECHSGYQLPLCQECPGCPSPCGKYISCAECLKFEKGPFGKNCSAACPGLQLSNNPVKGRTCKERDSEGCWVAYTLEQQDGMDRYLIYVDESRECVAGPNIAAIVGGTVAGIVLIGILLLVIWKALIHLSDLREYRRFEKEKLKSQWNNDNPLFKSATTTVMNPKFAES
sLFA-1/ICAM-1, sequence (P20701 26-1090 limits assumed, stated change not applied): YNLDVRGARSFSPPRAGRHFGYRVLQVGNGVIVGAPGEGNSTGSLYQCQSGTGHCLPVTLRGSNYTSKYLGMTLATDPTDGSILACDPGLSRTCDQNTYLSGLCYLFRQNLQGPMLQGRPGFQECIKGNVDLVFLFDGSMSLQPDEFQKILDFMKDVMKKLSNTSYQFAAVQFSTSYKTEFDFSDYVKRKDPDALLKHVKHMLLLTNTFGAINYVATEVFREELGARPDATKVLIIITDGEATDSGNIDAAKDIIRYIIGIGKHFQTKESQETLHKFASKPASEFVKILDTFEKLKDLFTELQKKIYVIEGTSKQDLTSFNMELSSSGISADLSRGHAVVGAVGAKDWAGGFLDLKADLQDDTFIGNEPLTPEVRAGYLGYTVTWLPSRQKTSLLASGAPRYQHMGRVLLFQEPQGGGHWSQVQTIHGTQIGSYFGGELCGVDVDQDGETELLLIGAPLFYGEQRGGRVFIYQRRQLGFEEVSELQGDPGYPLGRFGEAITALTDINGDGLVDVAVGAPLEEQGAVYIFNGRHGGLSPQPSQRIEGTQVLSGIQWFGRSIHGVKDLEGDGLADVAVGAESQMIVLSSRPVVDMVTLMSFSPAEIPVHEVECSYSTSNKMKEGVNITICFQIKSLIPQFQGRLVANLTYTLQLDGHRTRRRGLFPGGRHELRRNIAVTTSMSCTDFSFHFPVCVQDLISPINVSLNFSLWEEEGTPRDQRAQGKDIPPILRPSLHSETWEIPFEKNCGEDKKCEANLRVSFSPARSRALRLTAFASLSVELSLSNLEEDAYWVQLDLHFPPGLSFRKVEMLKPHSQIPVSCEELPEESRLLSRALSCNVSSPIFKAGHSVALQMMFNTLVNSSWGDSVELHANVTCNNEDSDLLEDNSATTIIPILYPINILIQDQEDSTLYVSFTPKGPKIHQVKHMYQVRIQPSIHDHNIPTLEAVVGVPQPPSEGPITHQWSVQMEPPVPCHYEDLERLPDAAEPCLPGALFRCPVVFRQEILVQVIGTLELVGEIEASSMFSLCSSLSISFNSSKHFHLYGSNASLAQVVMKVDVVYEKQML
sLFA-1/ICAM-1, sequence (P05107 23-700 limits assumed, stated change not applied): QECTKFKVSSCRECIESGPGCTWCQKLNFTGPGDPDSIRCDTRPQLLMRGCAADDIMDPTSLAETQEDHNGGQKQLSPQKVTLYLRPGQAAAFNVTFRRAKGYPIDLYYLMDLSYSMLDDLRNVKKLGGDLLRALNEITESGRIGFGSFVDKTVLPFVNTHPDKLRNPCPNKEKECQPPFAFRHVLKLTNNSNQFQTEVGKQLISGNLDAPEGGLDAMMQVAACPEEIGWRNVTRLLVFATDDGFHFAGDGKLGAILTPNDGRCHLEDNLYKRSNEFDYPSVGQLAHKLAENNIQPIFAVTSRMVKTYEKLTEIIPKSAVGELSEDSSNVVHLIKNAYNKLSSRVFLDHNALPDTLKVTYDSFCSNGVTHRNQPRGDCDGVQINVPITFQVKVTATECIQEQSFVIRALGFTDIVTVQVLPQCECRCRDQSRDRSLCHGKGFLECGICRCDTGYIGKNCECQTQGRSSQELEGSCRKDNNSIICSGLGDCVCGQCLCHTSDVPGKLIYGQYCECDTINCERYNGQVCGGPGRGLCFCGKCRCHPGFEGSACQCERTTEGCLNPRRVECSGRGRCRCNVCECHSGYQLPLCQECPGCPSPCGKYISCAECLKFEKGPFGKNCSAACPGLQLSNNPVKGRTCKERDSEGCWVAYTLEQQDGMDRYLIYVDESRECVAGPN

| SMILES | pIC50 (Mac-1/ICAM-1) | pIC50 (sLFA-1/ICAM-1) |
| --- | --- | --- |
| CC(C)(C)c1cc(C(=O)NCc2cccc(O)c2)sc1C(=O)N[C@@H](CNC(=O)c1cccs1)C(=O)O [Example 33] | 6.52 | 6.83 |
| Cc1cc(C(=O)NCc2cccc3[nH]ccc23)sc1C(=O)N[C@@H](CNC(=O)c1cccs1)C(=O)O [Example 34, (S)-2-({5-[(1H-indol-4-ylmethyl)carbamoyl]-3-methyl-thiophen-2-carbonyl}-amino)-3-[(thiophene-2-carbonyl)-amino]-propionic acid] | < 5.52 | 6.29 |
| Cc1cc(C(=O)NCc2cccc3c2CC(=O)N3)sc1C(=O)N[C@@H](CNC(=O)c1cccs1)C(=O)O [Example 35, (S)-2-({3-methyl-5-[(2-oxo-2,3-dihydro-11′-indol-4-ylmethyl)carbamoyl]-thiophen-2-carbonyl}-amino)-3-[(thiophene-2-carbonyl)-amino]-propionic acid] | < 5.52 | 6.17 |
| Cc1cc(C(=O)NCc2cccc(O)c2)sc1C(=O)N[C@@H](CNC(=O)c1cc(O)cc(O)c1)C(=O)O [Example 38, (S)-3-(3,5-dihydroxy-benzoylamino)-2-{[5-(3-hydroxy-benzylcarbamoyl)-3-methyl-thiophen-2-carbonyl]-amino}-propionic acid] | 8.15 | 8.70 |
| Cc1cc(C(=O)NCc2cccc(O)c2)sc1C(=O)N[C@@H](CNC(=O)c1cccc(O)c1)C(=O)O [Example 40] | 7.64 | 8.70 |
| O=C(NC[C@H](NC(=O)c1sc(C(=O)NCc2cccc3[nH]ccc23)cc1C(F)(F)F)C(=O)O)c1cccs1 [Example 50, (S)-2-({5-[(1H-Indol-4-ylmethyl)-carbamoyl]-3-trifluoromethyl-thiophene-2-carbonyl}-amino)-3-[(thiophene-2-carbonyl)-amino]-propionic acid] | < 5.52 | 6.46 |
| O=C1Cc2c(CNC(=O)c3cc(C(F)(F)F)c(C(=O)N[C@@H](CNC(=O)c4cccs4)C(=O)O)s3)cccc2N1 [Example 51, (S)-2-({5-[(2-oxo-2,3-dihydro-1H-indol-4-ylmethyl)-carbamoyl]-3-trifluoromethyl-thiophene-2-carbonyl}-amino)-3-[(thiophene-2-carbonyl)-amino]-propionic acid] | < 5.52 | 6.79 |
| O=C(NC[C@H](NC(=O)c1sc(C(=O)NCc2cccc(O)c2)cc1C(F)(F)F)C(=O)O)c1cccs1 [Example 52, (S)-2-{[5-(3-Hydroxy-benzylcarbamoyl)-3-trifluoromethyl-thiophene-2-carbonyl]-amino}-3-[(thiophene-2-carbonyl)-amino]-propionic acid] | 6.94 | 7.51 |
| O=C(NC[C@H](NC(=O)c1sc(C(=O)NCc2cccc3[nH]ncc23)cc1Cl)C(=O)O)c1cccs1 [Example 56, (S)-2-({3-Chloro-5-[(1H-indazol-4-ylmethyl)-carbamoyl]-thiophene-2-carbonyl}-amino)-3-[(thiophene-2-carbonyl)-amino]-propionic acid] | 7.70 | 7.54 |
| CCc1cc(C(=O)NCc2cccc(O)c2)sc1C(=O)N[C@@H](CNC(=O)c1cccs1)C(=O)O [Example 61, (S)-2-{[3-Ethyl-5-(3-hydroxy-benzylcarbamoyl)-thiophene-2-carbonyl]-amino}-3-[(thiophene-2-carbonyl)-amino]-propionic acid] | 7.51 | 7.80 |
| O=C(NC[C@H](NC(=O)c1sc(C(=O)NCc2cccc(O)c2)cc1Br)C(=O)O)c1cccs1 [Example 63, (S)-2-{[3-Bromo-5-(3-hydroxy-benzylcarbamoyl)-thiophene-2-carbonyl]-amino}-3-[(thiophene-2-carbonyl)-amino]-propionic acid] | 7.60 | 8.15 |
| Cc1cc(C(=O)NCc2ccc(F)c(O)c2)sc1C(=O)N[C@@H](CNC(=O)c1cccs1)C(=O)O [Example 64, (S)-2-{[5-(4-Fluoro-3-hydroxy-benzylcarbamoyl)-3-methyl-thiophene-2-carbonyl]-amino}-3-[(thiophene-2-carbonyl)-amino]-propionic acid] | < 5.52 | 7.96 |

The next lines start with the values.

| pIC50 (Mac-1/ICAM-1) | pIC50 (sLFA-1/ICAM-1) | SMILES |
| --- | --- | --- |
| 6.53 | 6.65 | Cc1nc(NCCCc2cccc3[nH]ncc23)sc1C(=O)N[C@@H](CNC(=O)c1cccs1)C(=O)O [Example 17, (S)-2-([2-[3-(1H-Indazol-4-yl)-propylamino]-4-methyl-thiazole-5-carbonyl]-amino)-3-[(thiophene-2-carbonyl)-amino]-propionic acid] |
| 7.03 | 7.72 | Cc1cc(C(=O)NCc2cccc(O)c2)sc1C(=O)N[C@@H](CNC(=O)c1cccs1)C(=O)O [Example 32, (S)-2-{[5-(3-hydroxy-benzylcarbamoyl)-3-methyl-thiophen-2-carbonyl]-amino}-3-[(thiophene-2-carbonyl)-amino]-propionic acid] |
| 7.32 | 7.62 | Cc1cc(C(=O)NCc2cccc3[nH]ncc23)sc1C(=O)N[C@@H](CNC(=O)c1cccs1)C(=O)O [Example 36, (S)-2-({5-[(1H-indazol-4-ylmethyl)-carbamoyl]-3-methyl-thiophen-2-carbonyl}-amino)-3-[(thiophene-2-carbonyl)-amino]-propionic acid] |
| < 5.52 | 7.26 | Cc1cc(C(=O)NCc2cccc(O)c2)sc1C(=O)N[C@@H](CNC(=O)c1cc(=O)[nH]c(=O)[nH]1)C(=O)O [Example 39] |
| < 5.52 | 7.68 | Cc1cc(C(=O)NCc2cccc(O)c2)sc1C(=O)N[C@@H](CNC(=O)c1cnccn1)C(=O)O [Example 41] |
| < 5.52 | 7.46 | Cc1cc(C(=O)NCc2cccc(O)c2)sc1C(=O)N[C@@H](CNC(=O)c1ccc2[nH]cnc2c1)C(=O)O [Example 42] |
| 6.68 | 7.74 | Cc1cc(C(=O)NCCc2cccc(O)c2)sc1C(=O)N[C@@H](CNC(=O)c1cc(O)cc(O)c1)C(=O)O [Example 49, (S)-3-(3,5-dihydroxy-benzoylamino)-2-([5-[2-(3-hydroxy-phenyl)-ethyl-carbamoyl]-3-methyl-thiophen-2-carbonyl]-amino)-propionic acid] |
| 7.21 | 8.15 | O=C(NC[C@H](NC(=O)c1sc(C(=O)NCc2cccc(O)c2)cc1Cl)C(=O)O)c1cccs1 [Example 54, (S)-2-{[3-Chloro-5-(3-hydroxy-benzylcarbamoyl)-thiophene-2-carbonyl]-amino}-3-[(thiophene-2-carbonyl)-amino]-propionic acid] |
| 7.26 | 7.39 | O=C(NC[C@H](NC(=O)c1sc(C(=O)NCc2cccc3[nH]ncc23)cc1C(F)(F)F)C(=O)O)c1cccs1 [Example 58, (S)-2-({5-[(1H-Indazol-4-ylmethyl)-carbamoyl]-3-trifluoromethyl-thiophene-2-carbonyl}-amino)-3-[(thiophene-2-carbonyl)-amino]-propionic acid] |
| 7.34 | 7.54 | CC(C)c1cc(C(=O)NCc2cccc(O)c2)sc1C(=O)N[C@@H](CNC(=O)c1cccs1)C(=O)O [Example 59, (S)-2-{[5-(3-Hydroxy-benzylcarbamoyl)-3-isopropyl-thiophene-2-carbonyl]-amino}-3-[(thiophene-2-carbonyl)-amino]-propionic acid] |
| 7.77 | 7.31 | CC(C)c1cc(C(=O)NCc2cccc3[nH]ncc23)sc1C(=O)N[C@@H](CNC(=O)c1cccs1)C(=O)O [Example 60, (S)-2-([5-[(1H-Indazol-4-ylmethyl)-carbamoyl]-3-isopropyl-thiophene-2-carbonyl]-amino)-3-[(thiophene-2-carbonyl)-amino]-propionic acid] |
| 7.60 | 7.68 | CCc1cc(C(=O)NCc2cccc3[nH]ncc23)sc1C(=O)N[C@@H](CNC(=O)c1cccs1)C(=O)O [Example 62, (S)-2-({3-Ethyl-5-[(1H-indazol-4-ylmethyl)-carbamoyl]-thiophene-2-carbonyl}-amino)-3-[(thiophene-2-carbonyl)-amino]-propionic acid] |
